The values that follow come from patent US12459951B2, “Compounds that interact with RAS superfamily proteins for treatment of cancers, inflammatory diseases, rasopathies, and fibrotic disease” (SHY Therapeutics, LLC, priority 2022, dated 2025).

In test [1] the test system is JNK phosphorylation. The test can be described thus: JNK Activation Assay (western blot), Panc-1. Particulars: at 10 μM, Panc-1 pancreatic cancer cell line; starred symbols = activation. The test is classed as cell-based, human. The essentials:
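KRas G12C Panc-1 cells treated 6 h at 37 °C with compound at 10 μM (0.3% DMSO), or serial dilutions for IC50. In Method 1 cells were serum-starved overnight (0.5% FBS) then stimulated with 1.5 ng/ml EGF for 15 min; Method 2 used 10% FBS without stimulation. Phospho-JNK (Thr183/Tyr185) measured by western blot.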
On the technique in general: A western blot detects proteins with antibodies after separation by electrophoresis.

Test [2] relates to KRas G12C mutant. Briefly: Ras GTP Binding Domain Inhibition Assay (Ras Superfamily Assay). The conditions noted are these: 20 μM compound; for KRas G12C mutant + SOS: % inh.: with SOS; for KRas G12C mutant: % inh.: without SOS. The essentials:
(§1)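 Binding of 100 nM fluorescent GTP (Cy3 or Cy5, 45 min, room temperature) was read after washes from plate-captured His-tagged protein. Beforehand, compounds at 20 μM or in dilution series for IC50 sat 3 h on the protein in Tris buffer pH 7.4 or 7.0 with 1% DMSO, Sos GEF optionally added for the last hour.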

In test [3] the test system is KRas Q61H mutant. Described as above. The conditions noted are these: 20 μM compound; for KRas Q61H mutant + SOS: % inh.: with SOS; for KRas Q61H mutant: % inh.: without SOS. In a few lines: as §1
Test [4] has as its target T1, Rho-A (Homo sapiens, UniProt P61586).
T1 construct: made in house
The test is described as above. The conditions noted are these: read-out: Rho-A: % inh.. In a few lines:
as §1

SMILES strings stand for the structures. Counter-ions that a name gives are not always drawn.

T1 sequence (P61586 whole entry): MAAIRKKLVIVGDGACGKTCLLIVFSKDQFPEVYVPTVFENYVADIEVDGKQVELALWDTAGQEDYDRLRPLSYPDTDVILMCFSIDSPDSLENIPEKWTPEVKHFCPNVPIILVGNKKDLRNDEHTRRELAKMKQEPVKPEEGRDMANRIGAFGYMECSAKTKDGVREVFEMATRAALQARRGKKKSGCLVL

Regarding `COc1cccc(-c2cn3nc(-c4nccn4C)nc(N[C@@H]4CC[C@@H](OC)C4)c3c2-c2ccccc2)c1Cl.Cl` (racemic) [Compound 34, rac 6-(2-Chloro-3-methoxyphenyl)-N-((1R,3R)-3-methoxycyclopentyl)-2-(1-methyl-1H-imidazol-2-yl)-5-phenylpyrrolo[2,1-f][1,2,4]triazin-4-amine hydrochloride], in test [1], the “% inh of JNK in Panc-1” value is “H (H = 100% inhibition)”. Besides, in test [2], the “KRas G12C mutant + SOS: % inh.” value is recorded as “A (A = 1-25% inhibition)” and the “KRas G12C mutant: % inh.” value is 0 (0 = 0% inhibition). Moreover, in test [3], the “KRas Q61H mutant + SOS: % inh.” value is listed as 0 (0 = 0% inhibition) and the “KRas Q61H mutant: % inh.” value is reported as 0 (0 = 0% inhibition). In addition, the inhibition at 20 µM in test [4] lay within 1 to 25%.

With `COc1cccc(Nc2nc(-c3nccn3C)nn3cc(-c4ccn(C(C)C)n4)c(C)c23)n1` [Compound 7, 6-(1-Isopropyl-1H-pyrazol-3-yl)-N-(6-methoxypyridin-2-yl)-5-methyl-2-(1-methyl-1H-imidazol-2-yl)pyrrolo[2,1-f][1,2,4]triazin-4-amine], the “% inh of JNK in Panc-1” value in test [1] is “H* (H* ≥ 100% activation)”. In test [2], the “KRas G12C mutant + SOS: % inh.” value is listed as “A (A = 1-25% inhibition)” and the “KRas G12C mutant: % inh.” value was 0 (0 = 0% inhibition). Moreover, in test [3], the “KRas Q61H mutant + SOS: % inh.” value is given as “A (A = 1-25% inhibition)” and the “KRas Q61H mutant: % inh.” value is recorded as “B (B = 26-49% inhibition)”. The inhibition at 20 µM in test [4] was determined as 0%.

Consider `COC[C@@H]1CC[C@@H]1CNc1nc(-c2nccn2C)nn2cc(-c3ccn(C(C)C)n3)c(C)c12` (racemic) [Compound 3, rac 6-(1-Isopropyl-1H-pyrazol-3-yl)-N-(((1S,2R)-2-(methoxymethyl)cyclobutyl)methyl)-5-methyl-2-(1-methyl-1H-imidazol-2-yl)pyrrolo[2,1-f][1,2,4]triazin-4-amine], for which the “% inh of JNK in Panc-1” value in test [1] was “H* (H* ≥ 100% activation)”. Moreover, in test [2], the “KRas G12C mutant + SOS: % inh.” value is 0 (0 = 0% inhibition) and the “KRas G12C mutant: % inh.” value was 0 (0 = 0% inhibition). Further, in test [3], the “KRas Q61H mutant + SOS: % inh.” value is given as 0 (0 = 0% inhibition) and the “KRas Q61H mutant: % inh.” value was 0 (0 = 0% inhibition). Besides, in test [4], the inhibition at 20 µM is 0%.

`COCC1CCN(c2nc(-c3nccn3C)nn3cc(-c4ccn(C(C)C)n4)c(C)c23)C1` (racemic) [Compound 2, rac 6-(1-Isopropyl-1H-pyrazol-3-yl)-4-(3-(methoxymethyl)pyrrolidin-1-yl)-5-methyl-2-(1-methyl-1H-imidazol-2-yl)pyrrolo[2,1-f][1,2,4]triazine]: the “% inh of JNK in Panc-1” value in test [1] is reported as “F* (F* = 31-74% activation)”. For the same molecule, in test [2], the “KRas G12C mutant + SOS: % inh.” value was 0 (0 = 0% inhibition) and the “KRas G12C mutant: % inh.” value was 0 (0 = 0% inhibition). In test [3], the “KRas Q61H mutant + SOS: % inh.” value is 0 (0 = 0% inhibition) and the “KRas Q61H mutant: % inh.” value is listed as 0 (0 = 0% inhibition). Moreover, in test [4], the inhibition at 20 µM is 0%.

As to `COC1CCCN(c2nc(-c3nccn3C)nn3cc(-c4ccn(C(C)C)n4)c(C)c23)C1` (racemic) [Compound 4, rac 6-(1-Isopropyl-1H-pyrazol-3-yl)-5-methyl-2-(1-methyl-1H-imidazol-2-yl)-4-(3-(oxo-γ6-methyl)piperidin-1-yl)pyrrolo[2,1-f][1,2,4]triazine], the “% inh of JNK in Panc-1” value in test [1] is reported as “G* (G* = 75-99% activation)”. In test [2], the “KRas G12C mutant + SOS: % inh.” value was 0 (0 = 0% inhibition) and the “KRas G12C mutant: % inh.” value is reported as 0 (0 = 0% inhibition). Moreover, in test [3], the “KRas Q61H mutant + SOS: % inh.” value was 0 (0 = 0% inhibition) and the “KRas Q61H mutant: % inh.” value is on record as 0 (0 = 0% inhibition). For the same molecule, the inhibition at 20 µM in test [4] lay in the range of 1 to 25%.

Take `COC[C@@H]1CC[C@@H]1CNc1nc(-c2nccn2C)nn2cc(-c3ccn(C(C)C)n3)c(-c3ccccc3)c12` (racemic) [Compound 20, rac 6-(1-Isopropyl-1H-pyrazol-3-yl)-N-(((1S,2R)-2-(methoxymethyl)cyclobutyl)methyl)-2-(1-methyl-1H-imidazol-2-yl)-5-phenylpyrrolo[2,1-f][1,2,4]triazin-4-amine]: in test [1], the “% inh of JNK in Panc-1” value is listed as “H* (H* ≥ 100% activation)”. Besides, in test [2], the “KRas G12C mutant + SOS: % inh.” value is 0 (0 = 0% inhibition) and the “KRas G12C mutant: % inh.” value was “A (A = 1-25% inhibition)”. In test [3], the “KRas Q61H mutant + SOS: % inh.” value is 0 (0 = 0% inhibition) and the “KRas Q61H mutant: % inh.” value is reported as 0 (0 = 0% inhibition). Moreover, the inhibition at 20 µM in test [4] lay in the range of 1 to 25%.

With `CC(C)n1ccc(-c2cn3nc(-c4nccn4C)nc(O)c3c2-c2ccccc2)n1` [Compound 17, 6-(1-Isopropyl-1H-pyrazol-3-yl)-2-(1-methyl-1H-imidazol-2-yl)-5-phenylpyrrolo[2,1-f][1,2,4]triazin-4-ol], the “% inh of JNK in Panc-1” value in test [1] is listed as 0 (0 = 0% inhibition). Moreover, in test [2], the “KRas G12C mutant + SOS: % inh.” value was “C (C = 50-75% inhibition)” and the “KRas G12C mutant: % inh.” value was “C (C = 50-75% inhibition)”. Also, in test [3], the “KRas Q61H mutant + SOS: % inh.” value is “C (C = 50-75% inhibition)” and the “KRas Q61H mutant: % inh.” value is given as “C (C = 50-75% inhibition)”. Further, in test [4], the inhibition at 20 µM fell in the range of 76 to 100%.

With `CO[C@H]1CC[C@@H](Nc2nc(-c3nccn3C)nn3cc(-c4ccn(C(C)C)n4)c(-c4ccccc4)c23)C1` (racemic) [Compound 18, rac 6-(1-Isopropyl-1H-pyrazol-3-yl)-N-((1R,3S)-3-methoxycyclopentyl)-2-(1-methyl-1H-imidazol-2-yl)-5-phenylpyrrolo[2,1-f][1,2,4]triazin-4-amine hydrochloride], the “% inh of JNK in Panc-1” value in test [1] was “F* (F* = 31-74% activation)”. Also, in test [2], the “KRas G12C mutant + SOS: % inh.” value is 0 (0 = 0% inhibition) and the “KRas G12C mutant: % inh.” value was 0 (0 = 0% inhibition). For the same molecule, in test [3], the “KRas Q61H mutant + SOS: % inh.” value is given as “A (A = 1-25% inhibition)” and the “KRas Q61H mutant: % inh.” value is 0 (0 = 0% inhibition). Further, the inhibition at 20 µM in test [4] lay in the range of 1 to 25%.

On to `COCC1CCN(c2nc(-c3nccn3C)nn3cc(-c4ccn(C(C)C)n4)c(-c4ccccc4)c23)C1.Cl` (racemic) [Compound 19, rac 6-(1-Isopropyl-1H-pyrazol-3-yl)-4-(3-(methoxymethyl)pyrrolidin-1-yl)-2-(1-methyl-1H-imidazol-2-yl)-5-phenylpyrrolo[2,1-f][1,2,4]triazine hydrochloride salt], for which, in test [1], the “% inh of JNK in Panc-1” value was “F* (F* = 31-74% activation)”. In test [2], the “KRas G12C mutant + SOS: % inh.” value is “A (A = 1-25% inhibition)” and the “KRas G12C mutant: % inh.” value is 0 (0 = 0% inhibition). Moreover, in test [3], the “KRas Q61H mutant + SOS: % inh.” value is “B (B = 26-49% inhibition)” and the “KRas Q61H mutant: % inh.” value is reported as 0 (0 = 0% inhibition). Also, in test [4], the inhibition at 20 µM lay in the range of 1 to 25%.

In the case of `COc1cc(Nc2nc(-c3nccn3C)nn3cc(-c4ccn(C(C)C)n4)c(-c4ccccc4)c23)ncn1` [Compound 22, 6-(1-Isopropyl-1H-pyrazol-3-yl)-N-(6-methoxypyrimidin-4-yl)-2-(1-methyl-1H-imidazol-2-yl)-5-phenylpyrrolo[2,1-f][1,2,4]triazin-4-amine], in test [1], the “% inh of JNK in Panc-1” value is on record as “H* (H* ≥ 100% activation)”. Besides, in test [2], the “KRas G12C mutant + SOS: % inh.” value was “A (A = 1-25% inhibition)” and the “KRas G12C mutant: % inh.” value was “B (B = 26-49% inhibition)”. Also, in test [3], the “KRas Q61H mutant + SOS: % inh.” value was “A (A = 1-25% inhibition)” and the “KRas Q61H mutant: % inh.” value is on record as “B (B = 26-49% inhibition)”. Moreover, in test [4], the inhibition at 20 µM is 50 to 75%.
